Source: the supplement of paper PMC10307832

Assays:
Assay in all cases: relative viability (nuclei count vs DMSO), 5 days (fraction); higher = more cells survive
17-AAG = compound: C=CCNC1=C2C[C@@H](C)C[C@H](OC)[C@H](O)[C@@H](C)/C=C(\C)[C@H](OC(N)=O)[C@@H](OC)/C=C\C=C(/C)C(=O)NC(=CC1=O)C2=O [17-AAG]
Method in brief: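 Following overnight incubation at 37 °C, lung cancer cell lines in 1536-well plates were pinned with five library-drug doses (not always all listed) in √10 steps on vehicle-anchored plates. The cells then spent 5 days without medium change before a combined fix, permeabilisation and Hoechst stain, 4× imaging and MetaXpress nuclear counts. Viability is the treated-to-vehicle ratio of nuclei, taken as the median across plates. Only plates with control CV below 25% and at least one doubling passed.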

17-AAG + Tozasertib = compound: C=CCNC1=C2C[C@@H](C)C[C@H](OC)[C@H](O)[C@@H](C)/C=C(\C)[C@H](OC(N)=O)[C@@H](OC)/C=C\C=C(/C)C(=O)NC(=CC1=O)C2=O [17-AAG] + Cc1cc(Nc2cc(N3CCN(C)CC3)nc(Sc3ccc(NC(=O)C4CC4)cc3)n2)n[nH]1 [Tozasertib] (partner 0.1 µM)
Method in brief: (§1)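 Lung cancer cell lines were seeded in 1536-well plates and dosed by pin tool the next day, with either a single drug or a fixed anchor-drug dose combined with five library-drug doses (not always all listed) spaced in √10 steps. Five days later, one step fixed the cells and stained their nuclei (final 0.05% Triton X-100, 1% formaldehyde, 1 ug/ml Hoechst), and nuclei were counted on 4× images. Relative viability is the nuclei count in treated wells divided by the count in vehicle wells, and each value is the median of duplicate plates.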

17-AAG + Navitoclax = compound: C=CCNC1=C2C[C@@H](C)C[C@H](OC)[C@H](O)[C@@H](C)/C=C(\C)[C@H](OC(N)=O)[C@@H](OC)/C=C\C=C(/C)C(=O)NC(=CC1=O)C2=O [17-AAG] + CC1(C)CCC(c2ccc(Cl)cc2)=C(CN2CCN(c3ccc(C(=O)NS(=O)(=O)c4ccc(N[C@H](CCN5CCOCC5)CSc5ccccc5)c(S(=O)(=O)C(F)(F)F)c4)cc3)CC2)C1 [Navitoclax] (partner 0.5 µM)
Method in brief: as §1

17-AAG + Phenformin = compound: C=CCNC1=C2C[C@@H](C)C[C@H](OC)[C@H](O)[C@@H](C)/C=C(\C)[C@H](OC(N)=O)[C@@H](OC)/C=C\C=C(/C)C(=O)NC(=CC1=O)C2=O [17-AAG] + N=C(N)NC(=N)NCCc1ccccc1 [Phenformin] (partner 250 µM)
Method in brief: as §1

| Cell Line | relative viability (17-AAG; 0.00128 µM) | relative viability (17-AAG; 0.004048 µM) | relative viability (17-AAG; 0.0128 µM) | relative viability (17-AAG; 0.04048 µM) | relative viability (17-AAG; 0.128 µM) | relative viability (17-AAG + Tozasertib; first compound 0.00128 µM) | relative viability (17-AAG + Tozasertib; first compound 0.004048 µM) | relative viability (17-AAG + Tozasertib; first compound 0.0128 µM) | relative viability (17-AAG + Tozasertib; first compound 0.04048 µM) | relative viability (17-AAG + Tozasertib; first compound 0.128 µM) | relative viability (17-AAG + Navitoclax; first compound 0.00128 µM) | relative viability (17-AAG + Navitoclax; first compound 0.004048 µM) | relative viability (17-AAG + Navitoclax; first compound 0.0128 µM) | relative viability (17-AAG + Navitoclax; first compound 0.04048 µM) | relative viability (17-AAG + Navitoclax; first compound 0.128 µM) | relative viability (17-AAG + Phenformin; first compound 0.00128 µM) | relative viability (17-AAG + Phenformin; first compound 0.004048 µM) | relative viability (17-AAG + Phenformin; first compound 0.0128 µM) | relative viability (17-AAG + Phenformin; first compound 0.04048 µM) | relative viability (17-AAG + Phenformin; first compound 0.128 µM) |
| --- | --- | --- | --- | --- | --- | --- | --- | --- | --- | --- | --- | --- | --- | --- | --- | --- | --- | --- | --- | --- |
| LCLC-97TM1 | 0.905 | 0.974 | 0.768 | 0.677 | 0.123 | 0.213 | 0.268 | 0.268 | 0.251 | 0.21 | 0.47 | 0.573 | 0.518 | 0.378 | 0.355 | 0.454 | 0.402 | 0.428 | 0.247 | 0.143 |
| LK-2 | 1.17 | 1 | 0.816 | 0.519 | 0.159 | 0.161 | 0.174 | 0.153 | 0.227 | 0.172 | 1.11 | 0.97 | 0.619 | 0.285 | 0.171 | 0.462 | 0.478 | 0.194 | 0.158 | 0.135 |
| LOU-NH91 | 0.928 | 0.819 | 0.571 | 0.435 | 0.354 | 0.663 | 0.475 | 0.39 | 0.327 | 0.307 | 0.608 | 0.525 | 0.32 | 0.332 | 0.297 | 0.592 | 0.513 | 0.383 | 0.376 | 0.307 |
| LU99A | 0.909 | 0.867 | 0.627 | 0.369 | 0.169 | 0.288 | 0.345 | 0.399 | 0.276 | 0.132 | 0.817 | 0.821 | 0.921 | 0.271 | 0.132 | 0.725 | 0.734 | 0.468 | 0.225 | 0.116 |
| LXF-289 | 1.01 | 1 | 0.872 | 0.167 | 0.121 | 0.204 | 0.22 | 0.203 | 0.127 | 0.0677 | 0.995 | 0.907 | 0.891 | 0.536 | 0.184 | 0.544 | 0.511 | 0.189 | 0.0865 | 0.0697 |
| NCI-H23 | 0.949 | 0.851 | 0.289 | 0.177 | 0.147 | 0.425 | 0.563 | 0.365 | 0.213 | 0.187 | 0.922 | 0.836 | 0.688 | 0.167 | 0.125 | 0.665 | 0.769 | 0.575 | 0.319 | 0.155 |
| NCI-H322M | 0.95 | 0.967 | 0.483 | 0.346 | 0.325 | 0.478 | 0.443 | 0.337 | 0.316 | 0.325 | 1.15 | 1.18 | 1.26 | 0.573 | 0.564 | 0.77 | 0.808 | 0.311 | 0.28 | 0.303 |
| NCI-H441 | 0.857 | 0.693 | 0.223 | 0.192 | 0.105 | 0.723 | 0.609 | 0.321 | 0.235 | 0.15 | 0.527 | 0.335 | 0.157 | 0.262 | 0.131 | 0.877 | 0.397 | 0.184 | 0.182 | 0.129 |
| NCI-H460 | 0.96 | 0.965 | 0.198 | 0.0341 | 0.0297 | 0.478 | 0.521 | 0.0911 | 0.0297 | 0.0214 | 0.986 | 1.08 | 0.0303 | 0.0146 | 0.0215 | 0.468 | 0.332 | 0.0221 | 0.021 | 0.0236 |
| NCI-H520 | 1.01 | 0.974 | 0.566 | 0.193 | 0.185 | 0.453 | 0.47 | 0.457 | 0.253 | 0.24 | 1.09 | 0.836 | 1.03 | 0.19 | 0.161 | 0.617 | 0.511 | 0.406 | 0.234 | 0.165 |
| NCI-H596 | 0.931 | 0.917 | 0.955 | 0.816 | 0.404 | 0.959 | 0.832 | 1.01 | 0.443 | 0.258 | 1.02 | 0.91 | 0.908 | 0.834 | 0.518 | 0.829 | 0.68 | 0.554 | 0.781 | 0.309 |
| NCI-H647 | 0.985 | 0.779 | 0.135 | 0.108 | 0.091 | 0.419 | 0.222 | 0.0879 | 0.0995 | 0.0751 | 1.23 | 1.01 | 0.11 | 0.104 | 0.0816 | 0.569 | 0.446 | 0.0903 | 0.103 | 0.103 |
| NCI-H727 | 0.989 | 0.922 | 0.858 | 0.5 | 0.344 | 0.569 | 0.682 | 0.53 | 0.453 | 0.25 | 0.426 | 0.455 | 0.214 | 0.206 | 0.226 | 0.535 | 0.445 | 0.475 | 0.287 | 0.277 |
| NCI-H838 | 1.03 | 0.963 | 0.575 | 0.187 | 0.177 | 0.315 | 0.309 | 0.161 | 0.135 | 0.134 | 1.15 | 1.12 | 1.07 | 0.165 | 0.166 | 0.543 | 0.327 | 0.118 | 0.132 | 0.0945 |
| NCI-H1355 | 0.983 | 0.974 | 0.899 | 0.193 | 0.159 | 0.554 | 0.583 | 0.543 | 0.555 | 0.167 | 0.927 | 0.944 | 0.958 | 0.449 | 0.373 | 0.492 | 0.457 | 0.388 | 0.186 | 0.165 |
